Measured values from PMC6892603 (Bioorganic & medicinal chemistry letters, 2019).

Experiments:
T. gondii RH-dTom = test: Activity against T. gondii RH-dTom; assay type: cell-based, Toxoplasma gondii
[1] = Aqueous solubility by nephelometry; assay type: physicochemical; conditions: for Sol6.5: pH 6.5 phosphate buffer
[2] = In vitro intrinsic clearance in human liver microsomes; assay type: in vitro ADME
T. cruzi CYP51 = T. cruzi CYP51 (Trypanosoma cruzi, UniProt Q7Z1V1); test: T. cruzi CYP51 heme ligand binding; conditions: Soret band
[3] = test system: panel of cancer cell lines; conditions: read-out: IC50 against a panel of cancer cell lines; previously reported; cited from earlier work
[4] = Cytotoxicity screen, growth inhibition of HFF cells; conditions: human
[5] = Cytotoxicity screen, growth inhibition of HC-04 cells; conditions: human
[6] = test system: L. donovani MHOM-ET 67/L82; test: Activity against L. donovani amastigotes, axenic assay
[7] = Cytotoxicity screen, growth inhibition of HEK 293T cells; conditions: human, Cytotoxicity IC50 HEK 293T, human kidney
[8] = test system: Tulahuen C4 strain of Trypanosoma cruzi; test: microbe, parasite or virus in culture; conditions: read-out: T. cruzi IC50

Chain of T. cruzi CYP51 (Q7Z1V1 whole entry): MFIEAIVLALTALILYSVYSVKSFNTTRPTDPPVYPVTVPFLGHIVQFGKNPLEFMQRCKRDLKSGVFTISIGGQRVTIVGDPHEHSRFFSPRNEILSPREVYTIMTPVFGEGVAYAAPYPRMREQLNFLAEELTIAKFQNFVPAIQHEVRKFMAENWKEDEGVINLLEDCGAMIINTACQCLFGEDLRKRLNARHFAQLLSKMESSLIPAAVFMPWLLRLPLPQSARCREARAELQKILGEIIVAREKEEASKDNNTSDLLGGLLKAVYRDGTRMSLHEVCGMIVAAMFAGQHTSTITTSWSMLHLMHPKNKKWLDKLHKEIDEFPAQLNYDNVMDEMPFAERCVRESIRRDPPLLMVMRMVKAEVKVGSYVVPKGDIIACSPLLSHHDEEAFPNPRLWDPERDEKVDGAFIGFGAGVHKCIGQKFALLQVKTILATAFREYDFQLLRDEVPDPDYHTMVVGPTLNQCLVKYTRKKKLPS

Sol6.5 [1] [µg/mL] | Structure (SMILES) | microsomal CLint [2] [µL/min/mg] | T. cruzi CYP51 spectral response (T. cruzi CYP51) | IC50 [4] [µM] | IC50 [5] [µM] | other results
12.5 to 25 | O=C(Nc1cccnc1)c1ccc(CNS(=O)(=O)c2ccc(N3CCOCC3)cc2)cc1 [Compound 5] | 69 | – | – | > 50 | Sol2.0 ([1]; 0.01 M HCl (approx. pH 2.0)): 50 to 100 µg/mL; IC50 [7]: < 1 µM
– | Cc1ncccc1NC(=O)c1ccc(CNS(=O)(=O)c2ccc(N3CCN(C)CC3)cc2)cc1 [Compound 14] | – | did not cause any changes | – | – | –
25 to 50 | CN1CCN(c2ccc(S(=O)(=O)NCc3ccc(-c4nc(-c5cccnc5)no4)cc3)cc2)CC1 [Compound 19] | – | – | > 50 | > 50 | –
– | O=C(Cn1ccnc1[N+](=O)[O-])NCc1ccccc1 [benznidazole] | – | – | – | – | IC50 [8]: 1.2 to 4.2 µM

Structure (SMILES) | Sol6.5 [1] [µg/mL] | microsomal CLint [2] [µL/min/mg] | T. cruzi CYP51 spectral response (T. cruzi CYP51) | IC50 [4] [µM] | IC50 [5] [µM] | other results
CN1CCN(c2ccc(S(=O)(=O)NCc3ccc(C(=O)Nc4cccnc4)cc3)cc2)CC1 [Compound 2] | 25 to 50 | 45 | moderate type II spectral response | > 50 | > 50 | Effect on growth of Toxoplasma gondii (T. gondii RH-dTom): no effect on the growth; IC50 [3]: 0.01 to 1 µM; Effect on growth of Leishmania donovani [6]: no effect on the growth
